The results in this text go back to PubChem BioAssay AID1919004 (Molecular Pharmacology Branch, DTP, NCI, 2023).

SMILES strings stand for the structures. Values joined by “and” are separate entries in the source; they are usually repeats but may differ in a detail not shown here. Identical values can stand only once.

For this assay, the system named is 883617-216-R-J1-PDC complex spheroids, growth, % test/control. The assay can be described thus: Anticancer human tumor 883617-216-R-J1-PDC patient-derived bladder carcinoma cell line growth inhibition [AhR]. Particulars: for viability, T/C: stronger effect = lower value. From the text:
Multicellular complex tumor spheroid response to aryl hydrocarbon receptor antagonists in combination with a variety of drugs and investigational agents in selected tumor cell lines
The current study was undertaken to assess response to aryl hydrocarbon receptor antagonists in combination with standard-of-care drugs and investigational agents in solid tumor complex spheroid models. Complex spheroids include a stromal component modeled by human endothelial cells (HUVEC) and fibroblasts modeled by human mesenchymal stem cells (MSCs). The concentration ranges selected for each drug and investigational agent were based upon clinically achievable concentrations if the clinical Cmax of the agent was known.
Compounds. The drugs and investigational agents: BAY 2416964 (NSC825713), GNF351 (NSC835774), CH-223191 (NSC835775), CPI-455 (NSC825282), aza-TdCyd (NSC777586), decitabine (NSC127716), belinostat (NSC758774), entinostat (NSC756642), pevonedistat (NSC761192), tazemetostat (NSC777109), talazoparib (NSC765396), olaparib (NSC753686), selinexor (NSC780203), nedisertib (M3814, NSC802822), bortezomib (NSC756655), venetoclax (NSC766270), doxorubicin (NSC123127), elimusertib (BAY189344, NSC800525), ceralasertib (AZD6738, NSC777638), TAK-243 (NSC785004), alisertib (NSC759677), etoposide (NSC141540), topotecan (NSC609699), eribulin (NSC707389), gemcitabine (NSC613327), carboplatin (NSC241240), cisplatin (NSC119875), and SN-38 (NSC673596) were obtained from the National Cancer Institute (NCI) Developmental Therapeutics Program Chemical Repository (32). The FDA-approved anticancer drug set is available from the Developmental Therapeutics Program at https://dtp.cancer.gov/organization/dscb/obtaining/available plates.htm. […] The stock solutions were prepared in dimethyl sulfoxide (DMSO, Sigma-Aldrich, St. Louis, MO, cat. D2650), except for the platinum compounds which were prepared in saline (Quality Biological, Gaithersburg, MD, cat. 114-055-101), at 800-fold the tested concentration and stored at -70 degrees C prior to their use. All drugs and investigational agents were tested over a range starting from a high concentration at or near the clinical Cmax and decreasing in half-log increments. If the clinical Cmax for an agent had not been determined, the highest concentration tested was 10 microM (Table 1).
Cell Culture. All cells were maintained in an incubator at 37 degrees C and 5% CO2 with 95% humidity. The PDC lines were cultured according to standard operating procedures established by the NCI PDMR (https://pdmr.cancer.gov). Briefly, all PDCs were thawed and cultured in Matrigel-coated flasks prepared with a working solution of 1X Ham's F-12 nutrient mix, without supplementation (Invitrogen, Waltham, MA, cat. 11765054), 100 U/mL penicillin-streptomycin (Invitrogen, cat. 15140122), and 2.5% Matrigel (Corning Inc., Corning, NY, cat. 354248) for the first three passages. All PDCs were cultured in complete DMEM/F-12 media containing advanced DMEM/F-12 (Invitrogen, cat. 12634028), 4.9% defined fetal bovine serum, heat inactivated (HyClone Laboratories Inc., Logan, UT, cat. SH30070.03HI), 389 ng/mL hydrocortisone (Sigma-Aldrich, cat. H4001), 9.7 ng/mL human EGF recombinant protein (Invitrogen, cat. PHG0313), 23.4 microg/mL adenine (Sigma-Aldrich, cat. A2786), 97.3 U/mL penicillin-streptomycin (Invitrogen, cat. 15140122), 1.9 mM L-glutamine (Invitrogen, cat. 25030081), and 9.7 microM Y-27632 dihydrochloride (Tocris Bioscience, Bristol, United Kingdom, cat. 1254). The PDCs were cultured in complete DMEM/F12 media without 10 microM Y-27632 dihydrochloride for at least two passages prior to the screen. The established cell lines NCI-H1341 and […] were cultured in DMEM/F-12, HEPES (Invitrogen, cat. 11330032), 5% defined fetal bovine serum (HyClone Laboratories Inc., cat. SH30070.03), ITS premix universal culture supplement [insulin (5 microg/mL), transferrin (5 microg/mL), and selenious acid (5 ng/mL)] […]
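Further: exposure lasted 7 days after dosing on day 3 of spheroid growth.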

Take `Nc1ccn(C2OC(CO)C(O)C2(F)F)c(=O)n1` (stereo not drawn) + Cc1ccccc1N=Nc1ccc(NC(=O)c2ccnn2C)c(C)c1: the IC50 (curve of first compound, second compound 0.1 µM) was less than 31.6 nM; the 50% inhibitory concentration (IC50) (curve of first compound, second compound 0.316 µM) was less than 31.6 nM; the IC50 (curve of first compound, second compound 1 µM) is less than 31.6 nM; the IC50 (curve of first compound, second compound 3.16 µM) is less than 31.6 nM; the IC50 (curve of first compound, second compound 10 µM) is less than 31.6 nM. Moreover, the viability, T/C is 27.8% (second compound 0.1 µM, first compound 0.0316 µM); 26.8% (second compound 0.1 µM, first compound 0.1 µM); 35.4% (second compound 0.1 µM, first compound 0.316 µM); 32.4% (second compound 0.1 µM, first compound 1 µM); 30.2% (second compound 0.1 µM, first compound 3.16 µM); 32.2% (second compound 0.1 µM, first compound 10 µM). For the same molecule, the viability, T/C is 25.1% (second compound 0.316 µM, first compound 0.0316 µM); 26.1% (second compound 0.316 µM, first compound 0.1 µM); 32.5% (second compound 0.316 µM, first compound 0.316 µM); 33.5% (second compound 0.316 µM, first compound 1 µM); 35.2% (second compound 0.316 µM, first compound 3.16 µM); 37.5% (second compound 0.316 µM, first compound 10 µM). Also, the viability, T/C by setting is: (second compound 1 µM, first compound 0.0316 µM) 28.6%; (second compound 1 µM, first compound 0.1 µM) 22.8%; (second compound 1 µM, first compound 0.316 µM) 31.5%; (second compound 1 µM, first compound 1 µM) 36%; (second compound 1 µM, first compound 3.16 µM) 34.2%; (second compound 1 µM, first compound 10 µM) 31.7%. Moreover, the viability, T/C was 26.1% (second compound 3.16 µM, first compound 0.0316 µM); 22.3% (second compound 3.16 µM, first compound 0.1 µM); 31% (second compound 3.16 µM, first compound 0.316 µM); 31.3% (second compound 3.16 µM, first compound 1 µM); 37.3% (second compound 3.16 µM, first compound 3.16 µM); 32.4% (second compound 3.16 µM, first compound 10 µM). Besides, the viability, T/C by setting is: (second compound 10 µM, first compound 0.0316 µM) 36.3%; (second compound 10 µM, first compound 0.1 µM) 27.8%; (second compound 10 µM, first compound 0.316 µM) 29.4%; (second compound 10 µM, first compound 1 µM) 34.5%; (second compound 10 µM, first compound 3.16 µM) 31.1%; (second compound 10 µM, first compound 10 µM) 32.4%.
As to `COc1cc(C2c3cc4c(cc3C(OC3OC5COC(C)OC5C(O)C3O)C3COC(=O)C23)OCO4)cc(OC)c1O` (stereo not drawn), the viability, T/C was 91.8% and 80.6% and 110% (compound 0.0316 µM); 107% and 89.4% and 97.1% (compound 0.1 µM); 75.1% and 76.3% and 79.2% (compound 0.316 µM); 63.8% and 88.8% and 74% (compound 1 µM); 69.7% and 85.2% and 68.1% (compound 3.16 µM); 59.4% and 84.4% and 59.1% (compound 10 µM). In addition, where the note is “curve of compound”, the half-maximal inhibitory concentration (IC50) is greater than 10000 nM.
Regarding `CC(CO)NC(=O)c1cc(-c2ccc(Cl)cc2)nn(-c2cnn(C)c2)c1=O` (stereo not drawn), the half-inhibitory concentration (IC50) (compound alone, run of 05/31/2022) is greater than 10000 nM.
`COc1cc(Nc2ncc3c(n2)-c2ccc(Cl)cc2C(c2c(F)cccc2OC)=NC3)ccc1C(=O)O`: the viability, T/C was 88.6% and 85% and 80.8% (compound 0.0316 µM); 78.9% and 73.3% and 119% (compound 0.1 µM); 75.5% and 72% and 97.8% (compound 0.316 µM); 74.1% and 70.4% and 84.2% (compound 1 µM); 71.2% and 71% and 109% (compound 3.16 µM); 72.2% and 65.5% and 117% (compound 10 µM). Further, the IC50 (curve of compound) is greater than 10000 nM.
Turning to `Cc1cncc(-c2nc(NCCc3c[nH]c4ccccc34)c3ncn(C(C)C)c3n2)c1`, the viability, T/C reads like this: (compound 0.1 µM) 88.2% [middle of 19 runs]; (compound 1 µM) 95.8% [middle of 20 runs]; (compound 10 µM) 51.4% [middle of 21 runs].

A word on the IC50: it is the concentration that inhibits the measured activity by half. As usually defined, the viability, T/C is the result in the treated group divided by that in the control group, in per cent.
